The term IC50 denotes the point on the concentration scale where inhibition reaches its midpoint. Lower therefore signals greater potency.

This is an account of results in US7202267B2, “Acyloxypyrrolidine derivatives, preparation thereof and application thereof in therapeutic” (Sanofi-aventis, priority 2002, dated 2007).

One assay addresses T1, human V1b receptors (Homo sapiens, UniProt P47901).
T1 construct: host or cells: cellular or adenohypophyseal membrane preparations
T1 sequence (P47901 1-424): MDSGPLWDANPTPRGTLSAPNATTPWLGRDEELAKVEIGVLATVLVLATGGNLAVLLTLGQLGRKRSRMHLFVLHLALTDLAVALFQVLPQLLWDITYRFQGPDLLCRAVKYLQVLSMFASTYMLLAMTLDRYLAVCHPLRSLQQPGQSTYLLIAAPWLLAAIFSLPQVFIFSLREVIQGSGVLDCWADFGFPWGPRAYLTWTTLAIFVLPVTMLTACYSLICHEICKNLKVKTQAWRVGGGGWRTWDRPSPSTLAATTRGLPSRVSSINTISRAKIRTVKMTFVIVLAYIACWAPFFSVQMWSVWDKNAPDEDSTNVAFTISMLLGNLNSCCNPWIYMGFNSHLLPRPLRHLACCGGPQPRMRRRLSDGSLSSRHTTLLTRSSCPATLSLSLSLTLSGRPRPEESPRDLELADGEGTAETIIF
The assay can be described thus: Displacement of [3H]-AVP binding to human V1b receptors. Particulars: cellular or adenohypophyseal membrane preparations. As for the experimental part:
The affinity of the compounds of formula (I) according to the invention, for V1b receptors for arginine-vasopressin, was determined in vitro using the method described by Y. DE KEYSER et al., Febs Letters, 1994, 356, 215–220. This method consists in studying, in vitro, the displacement of […] arginine-vasopressin ([^3H]-AVP) to V1b receptors present on cellular or adenohypophyseal membrane preparations bearing rat or human V1b receptors.
Background: Displacement assays read how much labelled ligand stays bound in the presence of the test substance.

The next assay concerns the target T2, human V1a receptors (Homo sapiens, UniProt P37288).
T2 construct: host or cells: cellular or membrane preparations
Briefly: Displacement of [3H]-AVP binding to human V1a receptors. The following applies: cellular or membrane preparations. The method, then: The affinity of the compounds of formula (I) according to the invention, for V1a receptors for arginine-vasopressin, was determined in vitro using the method described by M. THIBONNIER et al., J. Biol. Chem., 1994, 269, 3304–3310. This method consists in studying, in vitro, the displacement of […] arginine-vasopressin ([^3H]-AVP) to V1a receptors present on cellular or membrane preparations bearing rat or human V1a receptors.

T2 sequence (P37288 whole entry): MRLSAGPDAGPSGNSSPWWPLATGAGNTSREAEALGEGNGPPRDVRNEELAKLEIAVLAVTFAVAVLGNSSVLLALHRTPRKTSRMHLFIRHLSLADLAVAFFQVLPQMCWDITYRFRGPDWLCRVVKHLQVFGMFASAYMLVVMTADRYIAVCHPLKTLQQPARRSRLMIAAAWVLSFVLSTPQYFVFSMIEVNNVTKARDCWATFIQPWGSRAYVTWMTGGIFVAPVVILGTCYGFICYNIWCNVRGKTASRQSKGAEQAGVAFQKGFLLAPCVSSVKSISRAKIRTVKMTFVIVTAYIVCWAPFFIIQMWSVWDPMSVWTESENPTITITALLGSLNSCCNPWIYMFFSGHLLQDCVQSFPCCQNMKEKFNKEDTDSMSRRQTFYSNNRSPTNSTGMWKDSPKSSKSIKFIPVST

As to `COc1ccc(S(=O)(=O)N2C(=O)[C@@](c3ccccc3OC)(N3C[C@H](OC(C)=O)C[C@H]3C(=O)N(C)C)c3cc(Cl)ccc32)c(OC)c1` [Example 1, (3R,5S)-1-[(3R)-5-chloro-1-[(2,4-dimethoxyphenyl)sulfonyl]-3-(2-methoxyphenyl)-2-oxo-2,3-dihydro-1H-indol-3-yl]-5-[(dimethylamino)carbonyl]-3-pyrrolidinyl acetate], the figures for the IC50 on human V1b receptors and at human V1a receptors were 3.4 nM and 84 nM, respectively.
